In patent publication US10287292B2, “CXCR7 antagonists” (CHEMOCENTRYX, INC., priority 2012, dated 2019):

What was measured:
CXCR7 receptor [1] = target: T1, CXCR7 receptor (Homo sapiens (Human), UniProt P25106); assay: Serum Binding Analysis: displacement of 125I-labeled SDF-1 from CXCR7 in 100% human serum; conditions: 125I SDF-1 displacement in 100% human serum, MCF-7 and/or MDA-MB-435S CXCR7 transfected cells, 3 hrs at 4° C.; read-out: Avg Ser IC50
Experimental: (§1) The compounds were combined with cells expressing the CXCR7 receptor (e.g., MCF cells or cells transfected to express CXCR7) in the presence of the 125 I-labeled SDF-1 chemokine as detailed in Determination of IC50 values. Reagents and Cells (see below). The ability of the compounds to displace the labeled chemokine from the CXCR7 receptor sites at multiple concentrations was then determined with the screening process.
In Table 1, Avg Bind IC50 refers to the Buffer Binding Analysis described below, while Avg Ser IC50 refers to the Serum Binding Analysis described below. All compounds were prepared as described in the Examples above, or by related methods substituting readily available starting materials.
(§2) ^125I-labeled SDF-1 was purchased from Perkin-Elmer Life Sciences, Inc. (Boston, Mass.). The MCF-7 (adenocarcinoma; mammary gland) cell line was obtained from the American Type Culture Collection (ATCC, Manassas, Va.) or and was cultured in DMEM (Mediatech, Herndon, Va.) supplemented with 10% fetal bovine serum (FBS) (HyClone Logan, Utah) and bovine insulin (0.01 mg/mL) (Sigma. St. Louis, Mo.) at 37° C. in a humidified incubator at a 5% CO2/air mixture. CXCR7 transfected MDA-MB-435S were produced as described below. MDA-MB-435S human breast cancer line, was purchased from ATCC, and cultured in DMEM/10% FBS medium. The complete coding sequence of the gene encoding CXCR7 (a.k.a. CCXCKR2, hRDC1), was isolated from MCF-7 cells using μMACs mRNA isolation kit (Miltenyi Biotec, Auburn, Calif.). DNA contamination was removed by DNase digestion via RNeasy columns (Qiagen, Inc., Valencia, Calif.) and cDNA was generated using GeneAmp RNA PCR Core Kit (Applied Biosystems, Foster City. Calif.). PCR of cDNA samples was performed using Taq PCR Master Mix kit (Qiagen. Inc.) and hRDC1 primers harboring 5′ and 3′ Not I sites (hRDC1F 5′ […]-3, hRDC1R 5′-[…]-3′) Not I digested PCR product was ligated into Not I digested pcDNA3.1(+)(Invitrogen, Carlsbad, Calif.) and screened for orientation and sequence confirmed. Plasmid DNA was then isolated from overnight bacterial cultures by Maxiprep (Qiagen, Inc.). Plasmid DNA (10 μg) was added to MDA-MB-435s cells and cells were electroporated (0.22 kV, 960 uF) via Gene Pulser (Biorad laboratories, Hercules, Calif.). 48 hr post-electroporation, cells were transferred to selection medium (600 ug/ml G418).
In order to more properly assess the binding efficacy of the compounds, radioligand binding assays were carried out in the presence of 100% human serum to more accurately reflect the in vivo environment. […] Target compounds were tested to determine their ability to bind with CXCR7 sites on MCF-7 and/or MDA-MB-435S CXCR7 transfected cells. Efficiency-maxim/zed radioligand binding using filtration protocols as described in Dairaghi D J, et al., HHV8-encoded vMIP-I selectively engages chemokine receptor CCR5. Agonist and antagonist profiles of viral chemokines., J. Biol. Chem. 1999 Jul. 30; 274(31): 21569-74 and Gosling J, et al., Cutting edge: identification of a novel chemokine receptor that binds dendritic cell- and T cell-active chemokines including ELC, SLC, and TECK, J. Immunol. 2000 Mar. 15; 164(6):2851-6 was used.
In these assays, MCF-7 and/or MDA-MB-435S cells were interrogated with the target compounds and the ability of these compounds to displace 125 I radiolabeled SDF-1 was assessed using the protocol described in Dairaghi and Gosling. The target compounds were added to the plate to the indicated concentration followed by addition of cells and radiolabeled chemokine (125I SDF-1), both in the following medium (human AB serum with 10 mM HEPES added to stabilize at pH 7.4). All assays were then incubated for 3 hrs at 4° C. with gentle agitation.

CXCR7 receptor [2] = target: T1, CXCR7 receptor; assay: Buffer Binding Analysis: displacement of 125I-labeled SDF-1 from CXCR7; conditions: 125I SDF-1 displacement, buffer binding medium, MCF-7 and/or MDA-MB-435S CXCR7 transfected cells, 3 hr at 4° C.; read-out: Avg Bind IC50
Experimental: as §1
Compounds that were deemed effective modulators were able to displace at least 50% of the SDF-1 from the CXCR7 receptor at concentrations at or below 15 micromolar (μM) but >2500 nM (+); and more preferably at concentrations from >500 nM to ≤2500 nM (++). At present, especially preferred compounds can displace at least 50% of the SDF-1 from the CXCR7 receptor at concentrations at or below 500 nM (+++). Exemplary compounds that met these criteria are reproduced in Table 1 and the Examples above. In Table 1, Avg Bind IC50 refers to the Buffer Binding Analysis described below, while Avg Ser IC50 refers to the Serum Binding Analysis described below. All compounds were prepared as described in the Examples above, or by related methods substituting readily available starting materials.
as §2
Target compounds can be tested to determine their ability to bind with CXCR7 sites on MCF-7 and/or MDA-MB-435S CXCR7 transfected cells. Efficiency-maxim/zed radioligand binding using filtration protocols as described in Dairaghi D J, et al., HHV8-encoded vMIP-I selectively engages chemokine receptor CCR5. Agonist and antagonist profiles of viral chemokines., J. Biol. Chem. 1999 Jul. 30; 274(31): 21569-74 and Gosling J. et al., Cutting edge: identification of a novel chemokine receptor that binds dendritic cell-and T cell-active chemokines including ELC. SLC, and TECK., J. Immunol. 2000 Mar. 15; 164(6):2851-6 was used.
In these assays, MCF-7 and/or MDA-MB-435S cells are interrogated with the target compounds and the ability of these compounds to displace ^125I radiolabeled SDF-1 assessed using the protocol described in Dairaghi and Gosling. […]

T1 sequence (P25106 whole entry): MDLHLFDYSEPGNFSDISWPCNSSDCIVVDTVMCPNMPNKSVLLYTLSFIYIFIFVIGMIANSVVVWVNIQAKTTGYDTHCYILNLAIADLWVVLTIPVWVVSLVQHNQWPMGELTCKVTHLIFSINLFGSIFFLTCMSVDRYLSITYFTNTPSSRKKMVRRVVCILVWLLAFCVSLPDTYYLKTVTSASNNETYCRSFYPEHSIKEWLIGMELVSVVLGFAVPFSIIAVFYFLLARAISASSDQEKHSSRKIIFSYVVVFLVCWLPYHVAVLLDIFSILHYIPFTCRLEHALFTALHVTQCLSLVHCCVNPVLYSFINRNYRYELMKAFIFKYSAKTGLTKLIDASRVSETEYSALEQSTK

| SMILES | IC50 (CXCR7 receptor [1]) [nM] | IC50 (CXCR7 receptor [2]) [nM] |
| --- | --- | --- |
| Cc1ccn2ccnc(N3CC[C@H](NC(=O)c4coc(-c5ccc(F)cc5)n4)C3)c12 [Compound 1.116] | 500 to 2500 | ≤ 500 |
| O=C(N[C@H]1CCN(c2nccn3cnnc23)C1)c1ncn(-c2ccc(F)cc2)n1 [Compound 1.089] | ≤ 500 | ≤ 500 |
| O=C(N[C@H]1CCN(c2nccn3cccc23)C1)c1ncn(-c2ccc(Cl)cc2)n1 [Compound 1.119] | 500 to 2500 | ≤ 500 |
| Cc1ccn2ccnc(N3CC[C@H](NC(=O)c4ncn(-c5ccccc5)n4)C3)c12 [Compound 1.117] | ≤ 500 | ≤ 500 |
| O=C(N[C@H]1CCN(c2nccn3cnnc23)C1)c1csc(N2CCC(O)CC2)n1 [Compound 1.078] | ≤ 500 | ≤ 500 |
| O=C(N[C@H]1CCN(c2nccn3cccc23)C1)c1noc(C2CCOCC2)n1 [Compound 1.082] | 500 to 2500 | ≤ 500 |
| O=C(N[C@H]1CCN(c2nccn3cnnc23)C1)c1ccn(-c2ccc(Cl)cc2)n1 [Compound 1.112] | 500 to 2500 | ≤ 500 |
| O=C(N[C@H]1CCN(c2nccn3ccnc23)C1)c1ccn(-c2ccc(F)cc2)n1 [Compound 1.092] | ≤ 500 | ≤ 500 |
| Cc1ccn2ccnc(N3CC[C@H](NC(=O)c4csc(-c5ccc(F)cc5)n4)C3)c12 [Compound 1.108] | 500 to 2500 | ≤ 500 |
| Cc1ccn2ccnc(N3CC[C@H](NC(=O)c4csc(-c5ccccc5)n4)C3)c12 [Compound 1.105] | 500 to 2500 | ≤ 500 |
| Cc1ccccc1-n1cnc(C(=O)N[C@H]2CCN(c3nccn4cccc34)C2)n1 [Compound 1.118] | ≤ 500 | ≤ 500 |
| CC(C)c1cnc(C(=O)N[C@H]2CCN(c3nccn4cccc34)C2)nc1 [Compound 1.077] | ≤ 500 | ≤ 500 |
| O=C(N[C@H]1CCN(c2nccn3cccc23)C1)c1ccn(-c2ccc(Cl)c(F)c2)n1 [Compound 1.114] | ≤ 500 | ≤ 500 |
| O=C(N[C@H]1CCN(c2nccn3ccnc23)C1)c1ccn(C2CCOCC2)n1 [Compound 1.086] | 500 to 2500 | 500 to 2500 |
| O=C(N[C@H]1CCN(c2nccn3cccc23)C1)c1nnc(-c2ccccc2)[nH]1 [Compound 1.083] | 500 to 2500 | ≤ 500 |
| Cc1ccn2ccnc(N3CC[C@H](NC(=O)c4noc(-c5ccccc5)n4)C3)c12 [Compound 1.111] | 500 to 2500 | ≤ 500 |
| CCc1cnc(C(=O)N[C@H]2CCN(c3nccn4cccc34)C2)nc1 [Compound 1.065] | ≤ 500 | – |
| CC(C)c1cn2cccc2c(N2CC[C@H](NC(=O)c3ncn(-c4ccccc4)n3)C2)n1 [Compound 1.008] | 500 to 2500 | – |
| CC(C)c1cnc(C(=O)N[C@H]2CCN(c3nccn4cnnc34)C2)nc1 [Compound 1.061] | 500 to 2500 | – |
| O=C(N[C@H]1CCN(c2nccn3cnnc23)C1)c1coc(-c2ccccc2)n1 [Compound 1.069] | ≤ 500 | – |
| CC1(O)CCN(c2nc(C(=O)N[C@H]3CCN(c4nccn5cccc45)C3)cs2)CC1 [Compound 1.055] | ≤ 500 | – |
| O=C(NC1CN(c2nccn3cccc23)C[C@@H]1O)c1ccn(-c2ccc(F)cc2)n1 (some centres unmarked) [Compound 1.062] | ≤ 500 | – |
| O=C(N[C@H]1CCN(c2nccn3ccnc23)C1)c1ccc(N2CCC(O)CC2)nn1 [Compound 1.011] | 2500 to 15000 | – |
| Cc1cn2cccc2c(N2CC[C@H](NC(=O)c3csc(N4CCCC4)n3)C2)n1 [Compound 1.025] | ≤ 500 | – |
| Cc1cn2cccc2c(N2CC[C@H](NC(=O)c3csc(-c4ccccc4)n3)C2)n1 [Compound 1.023] | ≤ 500 | – |
| N#Cc1ccc(-n2cnc(C(=O)N[C@H]3CCN(c4nccn5ccnc45)C3)n2)cc1 [Compound 1.002] | 2500 to 15000 | – |

Results, then the compound that gave them:

| IC50 (CXCR7 receptor [1]) [nM] | IC50 (CXCR7 receptor [2]) [nM] | SMILES |
| --- | --- | --- |
| ≤ 500 | ≤ 500 | O=C(N[C@H]1CCN(c2nccn3cnnc23)C1)c1ccn(-c2ccc(F)cc2)n1 [Compound 1.084] |
| ≤ 500 | ≤ 500 | O=C(N[C@H]1CCN(c2nccn3cccc23)C1)c1ncn(-c2ccccc2)n1 [Compound 1.126] |
| ≤ 500 | ≤ 500 | O=C(N[C@H]1CCN(c2nccn3ccnc23)C1)c1ccn(-c2ccc(Cl)cc2)n1 [Compound 1.102] |
| ≤ 500 | ≤ 500 | O=C(N[C@H]1CCN(c2nccn3cccc23)C1)c1ncc(-c2ccc(F)cc2)cn1 [Compound 1.076] |
| 500 to 2500 | ≤ 500 | Cc1ccccc1-c1nc(C(=O)N[C@H]2CCN(c3nccn4cccc34)C2)co1 [Compound 1.080] |
| ≤ 500 | ≤ 500 | N#CCc1ccccc1-n1ccc(C(=O)N[C@H]2CCN(c3nccn4cccc34)C2)n1 [Compound 1.115] |
| 500 to 2500 | ≤ 500 | Cc1ccn2ccnc(N3CC[C@H](NC(=O)c4ncc(-c5ccccc5)cn4)C3)c12 [Compound 1.110] |
| ≤ 500 | ≤ 500 | O=C(N[C@H]1CCN(c2nccn3ccnc23)C1)c1csc(N2CCC(O)CC2)n1 [Compound 1.079] |
| ≤ 500 | ≤ 500 | O=C(N[C@H]1CCN(c2nccn3cnnc23)C1)c1ncn(-c2ccccc2)n1 [Compound 1.127] |
| ≤ 500 | ≤ 500 | Cc1ccn2ccnc(N3CC[C@H](NC(=O)c4ccn(-c5cccc(F)c5)n4)C3)c12 [Compound 1.099] |
| 2500 to 15000 | ≤ 500 | Cc1ccn2ccnc(N3CC[C@H](NC(=O)c4ccn(-c5ccc(Cl)cc5)n4)C3)c12 [Compound 1.104] |
| ≤ 500 | ≤ 500 | O=C(N[C@H]1CCN(c2nccn3cnnc23)C1)c1coc(-c2ccc(F)cc2)n1 [Compound 1.122] |
| ≤ 500 | ≤ 500 | O=C(N[C@H]1CCN(c2nccn3cccc23)C1)c1ccn(-c2ccc(Cl)cc2)n1 [Compound 1.129] |
| ≤ 500 | – | O=C(N[C@H]1CCN(c2nccn3ccnc23)C1)c1ncn(-c2cccc(F)c2)n1 [Compound 1.016] |
| ≤ 500 | – | Cc1ccccc1-c1nc(C(=O)N[C@H]2CCN(c3nccn4ccnc34)C2)cs1 [Compound 1.045] |
| ≤ 500 | – | Cc1cn2ccnc2c(N2CC[C@H](NC(=O)c3ncn(-c4ccccc4)n3)C2)n1 [Compound 1.032] |
